Experimental data taken from patent US20220370416A1, “COMPOUNDS AND METHODS FOR TARGETED DEGRADATION OF KRAS” (Arvinas Operations, Inc., priority 2020, published 2022).
One block for each molecule: values may come before it.

How the values were obtained:
[1] = molecular target: T1, HiBit-KRAS^G12C (Homo sapiens, UniProt P01116, G12C); assay: HiBit degradation assay in SW1573 HiBit-KRas^G12C cells; type: cell-based; set-up: expressed in transfected cells; host or cells: SW1573 (clone E6), modified pcDNA3.1 vector, TK promoter; details: 24 hours
Summary of the method: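 HiBit-KRAS G12C degradation was measured after a 24 h compound exposure (titrated 10 μM–20 nM) in engineered SW1573 cells. Lytic HiBit luminescence, expressed relative to DMSO controls, yielded DC50 and Dmax from 4-parameter fits. Concentrations causing ≥50% loss in alamar blue viability were omitted as cytotoxic.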

[2] = molecular target: T1, HiBit-KRAS^G12C; assay: HiBit degradation assay in MiaPaCa-2 HiBit-KRas^G12C cells; type: cell-based; details: 24 hours
Summary of the method: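 DC50 and Dmax come from 4-parameter fits of DMSO-normalized HiBit luminescence after 24 hours' exposure at 37° C to 10 μM–20 nM compound in 0.1% or 0.5% DMSO. Cells: MiaPaCa-2 carrying one endogenously HiBit-tagged KRAS^G12C allele; concentrations causing ≥50% […] viability loss (alamar blue) excluded.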

[3] = read-out: KRas^G12C-HiBiT (SW1573; 0.5% DMSO) IC50***, SW1573 HiBit-KRas^G12C, 0.5% DMSO
[4] = MIA PaCa-2, MiaPaCa-2 HiBit-KRas^G12C cells, 0.5% DMSO, maximum degradation, read-out: KRas^G12C-HiBiT (MiaPaCa; 0.5% DMSO) DMax
[5] = read-out: KRas^G12C-HiBiT (MiaPaCa; 0.5% DMSO) IC50, MiaPaCa-2 HiBit-KRas^G12C cells, 0.5% DMSO
[6] = SW1573, SW1573 HiBit-KRas^G12C, 0.5% DMSO, read-out: KRas^G12C-HiBiT (SW1573; 0.5% DMSO) Dmax**
[7] = SW1573 HiBit-KRas^G12C, 0.1% DMSO, read-out: KRas^G12C-HIBit (SW1573; 0.1% DMSO) DC50*

T1 sequence (P01116 1-186 isoform P01116-2 G12C limits assumed): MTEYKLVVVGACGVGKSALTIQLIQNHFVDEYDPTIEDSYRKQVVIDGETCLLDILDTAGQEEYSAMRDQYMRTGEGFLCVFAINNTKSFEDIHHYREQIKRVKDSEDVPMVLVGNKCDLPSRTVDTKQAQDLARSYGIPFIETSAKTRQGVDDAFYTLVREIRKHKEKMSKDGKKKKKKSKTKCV

SMILES: C=CC(=O)N1CCN(c2nc(OCCN3CCC(COc4cc([C@H](C(=O)N5C[C@H](O)C[C@H]5C(=O)N[C@@H](C)c5ccc(C#N)cc5)C(C)C)on4)CC3)nc3c(F)c(-c4cc(O)cc5ccccc45)c(Cl)cc23)C[C@@H]1CC#N [Compound 160, (2S,4R)-1-[(2R)-2-[3-({1-[2-({6-chloro-4-[(3S)-3-(cyanomethyl)-4-(prop-2-enoyl)piperazin-1-yl]-8-fluoro-7-(3-hydroxynaphthalen-1-yl)quinazolin-2-yl}oxy)ethyl]piperidin-4-yl}methoxy)-1,2-oxazol-5-yl]-3-methylbutanoyl]-N-[(1S)-1-(4-cyanophenyl)ethyl]-4-hydroxypyrrolidine-2-carboxamide]
- DC50 [1, 3]: > 1000 nM
- Dmax [2, 4]: < 35%
- DC50 [2, 5]: 100 to 1000 nM

SMILES: C=CC(=O)N1CCN(c2nc(OCCN3CCC(COCC(=O)N[C@H](C(=O)N4C[C@H](O)C[C@H]4C(=O)N[C@@H](C)c4ccc(-c5scnc5C)cc4)C(C)(C)C)CC3)nc3c(F)c(-c4nc(N)cc5ccccc45)c(Cl)cc23)C[C@@H]1CC#N [Compound 111]
- Dmax [1, 6]: 35 to 70%
- DC50 [1, 3]: 100 to 1000 nM
- Dmax [2, 4]: 35 to 70%
- DC50 [2, 5]: 100 to 1000 nM

SMILES: C=C(F)C(=O)N1CCN(c2nc(OCCN3CCC(F)(COc4cc([C@H](C(=O)N5C[C@H](O)C[C@H]5C(=O)N[C@@H](C)c5ccc(-c6ccnn6C)cc5)C(C)C)on4)CC3)nc3c(F)c(-c4cc(O)cc5ccccc45)c(Cl)cc23)C[C@@H]1CC#N (atropisomer, axis not shown) [Compound 117, (2S,4R)-1-[(2R)-2-[3-({1-[2-({6-chloro-4-[(3S)-3-(cyanomethyl)-4-(2-fluoroprop-2-enoyl)piperazin-1-yl]-8-fluoro-7-(3-hydroxynaphthalen-1-yl)quinazolin-2-yl}oxy)ethyl]-4-fluoropiperidin-4-yl}methoxy)-1,2-oxazol-5-yl]-3-methylbutanoyl]-4-hydroxy-N-[(1S)-1-[4-(1-methyl-1H-pyrazol-5-yl)phenyl]ethyl]pyrrolidine-2-carboxamide]
- Dmax [1, 6]: 35 to 70%
- DC50 [1, 3]: < 100 nM
- Dmax [2, 4]: > 70%
- DC50 [2, 5]: < 100 nM

SMILES: C=CC(=O)N1CCN(c2nc(OCCN3CCC(OCCOc4cc([C@H](C(=O)N5C[C@H](O)C[C@H]5C(=O)N[C@@H](C)c5ccc(-c6scnc6C)cc5)C(C)C)on4)CC3)nc3c(F)c(-c4cc(O)cc5ccccc45)c(Cl)cc23)C[C@@H]1CC#N (atropisomer, axis not shown) [Compound 4, (2S,4R)-1-((R)-2-(3-(2-((1-(2-(((R)-4-((S)-4-acryloyl-3-(cyanomethyl)piperazin-1-yl)-6-chloro-8-fluoro-7-(3-hydroxynaphthalen-1-yl)quinazolin-2-yl)oxy)ethyl)piperidin-4-yl)oxy)ethoxy)isoxazol-5-yl)-3-methylbutanoyl)-4-hydroxy-N-((S)-1-(4-(4-methylthiazol-5-yl)phenyl)ethyl)pyrrolidine-2-carboxamide]
- KRas^G12C-HiBit (SW1573; 0.1% DMSO) Dmax** ([1]; SW1573 HiBit-KRas^G12C, 0.1% DMSO): B (35 < B < 70)
- DC50 [1, 7]: 100 to 1000 nM
- KRas^G12C-HiBiT (MiaPaCa; 0.1% DMSO) DMax ([2]; MiaPaCa-2 HiBit-KRas^G12C cells, 0.1% DMSO, maximum degradation): C (C ≤ 35)
- KRas^G12C-HiBiT (MiaPaCa; 0.5% DMSO) DMax ([2]; MiaPaCa-2 HiBit-KRas^G12C cells, 0.5% DMSO, maximum degradation): B (35 < B < 70)

SMILES: C=CC(=O)N1CCN(c2nc(O[C@H](C)CN3CC(CN4CCN(CC(=O)N[C@H](C(=O)N5C[C@H](O)C[C@H]5C(=O)N[C@@H](C)c5ccc(-c6scnc6C)cc5)C(C)(C)C)CC4)C3)nc3c(F)c(-c4cc(O)cc5ccccc45)c(Cl)cc23)CC1 [Compound 59, (2S,4R)-1-[(2S)-2-{2-[4-({1-[(2R)-2-{[6-chloro-8-fluoro-7-(3-hydroxynaphthalen-1-yl)-4-[4-(prop-2-enoyl)piperazin-1-yl]quinazolin-2-yl]oxy}propyl]azetidin-3-yl}methyl)piperazin-1-yl]acetamido}-3,3-dimethylbutanoyl]-4-hydroxy-N-[(1S)-1-[4-(4-methyl-1,3-thiazol-5-yl)phenyl]ethyl]pyrrolidine-2-carboxamide]
- Dmax ([1]; SW1573, read-out: KRas^G12C-HiBit (SW1573; 0.1% DMSO) Dmax**, SW1573 HiBit-KRas^G12C, 0.1% DMSO): 35 to 70%
- DC50 [1, 7]: > 1000 nM
- Dmax ([2]; MIA PaCa-2, read-out: KRas^G12C-HiBiT (MiaPaCa; 0.1% DMSO) DMax, MiaPaCa-2 HiBit-KRas^G12C cells, 0.1% DMSO, maximum degradation): < 35%

SMILES: C=C(F)C(=O)N1CCN(c2nc(OCCN3CCC(F)(COc4cc([C@H](C(=O)N5C[C@H](O)C[C@H]5C(=O)N[C@@H](C)c5ccc(-c6scnc6C)cc5)C(C)C)on4)CC3)nc3c(F)c(-c4cc(O)cc5ccccc45)c(Cl)cc23)C[C@@H]1CC#N (atropisomer, axis not shown) [Compound 121, (2S,4R)-1-[(2R)-2-[3-({1-[2-({6-chloro-4-[(3S)-3-(cyanomethyl)-4-(2-fluoroprop-2-enoyl)piperazin-1-yl]-8-fluoro-7-(3-hydroxynaphthalen-1-yl)quinazolin-2-yl}oxy)ethyl]-4-fluoropiperidin-4-yl}methoxy)-1,2-oxazol-5-yl]-3-methylbutanoyl]-4-hydroxy-N-[(1S)-1-[4-(4-methyl-1,3-thiazol-5-yl)phenyl]ethyl]pyrrolidine-2-carboxamide]
- Dmax [1, 6]: 35 to 70%
- DC50 [1, 3]: < 100 nM
- Dmax [2, 4]: > 70%
- DC50 [2, 5]: 100 to 1000 nM

More lines, now with the values ahead:

- KRas^G12C-HiBiT (SW1573; 0.5% DMSO) Dmax** ([1]; SW1573 HiBit-KRas^G12C, 0.5% DMSO): A (A ≥ 70)
- DC50 [1, 3]: < 100 nM
- Dmax [2, 4]: > 70%
- DC50 [2, 5]: < 100 nM
SMILES: C=C(F)C(=O)N1CCN(c2nc(OCCN3CCC(COc4cc([C@H](C(=O)N5C[C@H](O)C[C@H]5C(=O)N[C@@H](C)c5ccc(-c6scnc6C)cc5)C(C)C)on4)CC3)nc3c(F)c(-c4cc(O)cc5ccccc45)c(Cl)cc23)C[C@@H]1CC#N (atropisomer, axis not shown) [Compound 167, (2S,4R)-1-[(2R)-2-[3-({1-[2-({6-chloro-4-[(3S)-3-(cyanomethyl)-4-(2-fluoroprop-2-enoyl)piperazin-1-yl]-8-fluoro-7-(3-hydroxynaphthalen-1-yl)quinazolin-2-yl}oxy)ethyl]piperidin-4-yl}methoxy)-1,2-oxazol-5-yl]-3-methylbutanoyl]-4-hydroxy-N-[(1S)-1-[4-(4-methyl-1,3-thiazol-5-yl)phenyl]ethyl]pyrrolidine-2-carboxamide]

- DC50 [1, 3]: > 1000 nM
- DC50 [2, 5]: > 1000 nM
SMILES: C=C(F)C(=O)N1CCN(c2nc(OCCN3CCC(COc4cc([C@@H](C(=O)N5C[C@H](O)C[C@H]5C(=O)N[C@@H](C)c5ccc(-c6scnc6C)cc5)C(C)C)on4)CC3)nc3c(F)c(-c4cc(O)cc5ccccc45)c(Cl)cc23)C[C@@H]1CC#N [Compound 171, (2S,4R)-1-[(2S)-2-[3-({1-[2-({6-chloro-4-[(3S)-3-(cyanomethyl)-4-(2-fluoroprop-2-enoyl)piperazin-l-yl]-8-fluoro-7-(3-hydroxynaphthalen-1-yl)quinazolin-2-yl}oxy)ethyl]piperidin-4-yl}methoxy)-1,2-oxazol-5-yl]-3-methylbutanoyl]-4-hydroxy-N-[(1S)-1-[4-(4-methyl-1,3-thiazol-5-yl)phenyl]ethyl]pyrrolidine-2-carboxamide]

- Dmax ([1]; SW1573, SW1573 HiBit-KRas^G12C, 0.1% DMSO, read-out: KRas^G12C-HiBit (SW1573; 0.1% DMSO) Dmax**): 35 to 70%
- DC50 [1, 7]: 100 to 1000 nM
- DC50 ([2]; read-out: KRas^G12C-HiBiT (MiaPaCa; 0.1% DMSO) IC50, MiaPaCa-2 HiBit-KRas^G12C cells, 0.1% DMSO): > 1000 nM
SMILES: C=CC(=O)N1CCN(c2nc(O[C@H](C)CN3CCC(OCCOCCOCCOc4cc(-c5scnc5C)ccc4CNC(=O)[C@@H]4C[C@@H](O)CN4C(=O)[C@H](c4cc(C)no4)C(C)C)CC3)nc3c(F)c(-c4cc(O)cc5ccccc45)c(Cl)cc23)CC1 [Compound 69, (2S,4R)-N-{[2-(2-{2-[2-({1-[(2R)-2-{[6-chloro-8-fluoro-7-(3-hydroxynaphthalen-1-yl)-4-[4-(prop-2-enoyl)piperazin-1-yl]quinazolin-2-yl]oxy}propyl]piperidin-4-yl}oxy)ethoxy]ethoxy}ethoxy)-4-(4-methyl-1,3-thiazol-5-yl)phenyl]methyl}-4-hydroxy-1-[(2S)-3-methyl-2-(3-methyl-1,2-oxazol-5-yl)butanoyl]pyrrolidine-2-carboxamide]
